Structures are written as SMILES.

The record followed here is patent US20090158465A1, “TRANSGENIC PLANTS WITH ENHANCED DROUGHT-RESISTANCE AND METHOD FOR PRODUCING THE PLANTS” (priority 2006, published 2009).

The test system of test [1] is stomata (guard cells) of abo1-1 and wild-type plants. As to the kind of experiment: Stomatal aperture (closing) bioassay with ABA. It counts as cell-based, Arabidopsis thaliana. How it is done: Stomatal closing assays were conducted as described previously (Pei, Z. M. et al., Plant Cell 9:409-42 (1997)). Rosette leaves were floated in solutions containing 50 μM CaCl2, 10 mM KCl, 10 mM MES [2-(N-morpholino)ethanesulfonic acid]-Tris, pH 6.15, and exposed to light (150 μmol m-2 s-1) for 2 h. […] After ABA treatment for 2 h, stomatal apertures were measured as described previously (Pei, Z. M. et al., Plant Cell 9:409-42 (1997)). Values are means ±standard errors (SE) (n=30). Significance (P<0.05) was assessed by Student's t test.
In order to determine the cause of the drought-resistant phenotype of the abo1-1 mutant, we performed experiments to determine whether this phenotype is related to increased sensitivity of stomatal closure to ABA. abo1-1 and wild-type plants were exposed to high humidity for 12 h to open stomata fully. […]

Test [2] relates to abo1-1 and wild-type seedlings. Nature of the test: Seedling growth on MS medium containing ABA. It counts as in vivo, Arabidopsis thaliana. As to conditions: abo1-1 versus wild type; 5-day-old seedlings transferred to different concentrations of ABA, scored one week later. How it is done:
Plants were grown in 340-ml pots filled with a mixture of peat/forest soil and vermiculite (3:1) in a greenhouse at 22° C., with light intensity of 50 μmol m-2 s-1 and 70% rH under long-day conditions (16-h-light/8-h-dark cycle). Seedlings were germinated and grown on Murashige and Skoog (MS) medium (M5519; Sigma) supplemented with 3% (wt/vol) sucrose and 0.8% agar under the same growth conditions.
We also analyzed the ABA sensitivities of abo1-plants in seed germination and seedling growth. Seedlings grown for 5 days on MS medium were transferred to MS media containing different concentrations of ABA. One week later, the plants were scored for visible changes. Without ABA, the root growth of abo1-1 plants was slower than that of wild-type plants but they had similar levels of shoot growth. […] The postgermination growth of abo1-1 seedlings was more impaired than that of the wild type, as indicated by the ratio of seedlings with green cotyledons to the total number of seedlings after germination for 1 week (FIG. 3D).

Test [3] concerns abo1-1 and wild-type seedlings. As to the kind of experiment: Oxidative stress: seedlings on MS medium supplemented with MV. It is filed as in vivo, Arabidopsis thaliana. The source says: ABA can induce the expression of genes encoding antioxidant enzymes (Guan, L. et al., Plant Physiol. 117:217-224 (1998); Zhu, D. et al., Plant Physiol. 106:173-178 (1994)). ABA also induces the production of reactive oxygen species that serve as a second messenger in ABA signaling in guard cells (Jiang, M. et al., Plant Cell Physiol. 42:1265-127 (2001); Pei, Z. M. et al., Nature 406:731-73 (2000)). In order to test whether the ABA sensitivity of abo1-1 seedlings might be connected with reactive oxygen species, we analyzed the response of abo1-1 mutant plants to oxidative stress. Methyl viologen (MV) (paraquat) inhibits electron transport in the reduction of NADP to NADPH during photosynthesis and thus enhances H2O2 production in chloroplasts under light (Suntres, Z. E. Toxicology 180:65-7 (2002)). Seedlings grown on MS medium for 5 days were transferred to new MS medium supplemented with different concentrations of MV. The abo1-1 seedlings grew well on MS medium supplemented with 3 μM MV, while more than 50% of wild-type seedlings were killed at this concentration (FIG. 4A) after a 5-day treatment. […] Seed germination was inhibited to similar extents for both abo1-1 and wild-type plants by various concentrations of MV. After radicles emerged, the young seedlings were more sensitive to MV.

In test [4] the test system is abo1-1 and wild-type leaves. Nature of the test: Oxidative stress: leaves from soil-grown plants treated with MV or H2O2 (damage, ion leakage). More on the design: species or system Arabidopsis thaliana. The procedure: (§1) The leaves taken from plants grown in soil were treated with 1 μM MV. […] Electrolyte leakage (conductivity) is often used as an indicator of tissue damage. […] Rose Bengal is another reagent that generates H2O2 when exposed to the light. […] This was supported by ion leakage measurements at different time points (FIG. 4H).

Test [5] deals with abo1 mutant and wild-type seedlings. Nature of the test: Oxidative stress: seedlings exposed to Rose Bengal. It counts as in vivo, Arabidopsis thaliana. As to conditions: 10 μM Rose Bengal for 3 days. How it is done: as §1

In the case of `CC1=CC(=O)CC(C)(C)[C@@]1(O)/C=C/C(C)=C\C(=O)O` [ABA, abscisic acid], the stomatal closure entry in test [1] (abo1-1 plants, 1 μM ABA for 2 h) is “almost completely closed”; in test [1] (wild-type plants, 20 μM ABA, same treatment time (2 h), data not shown) it was “did not completely close”. In addition, the “ABA concentration enhancing stomatal closure in abo1-1 to the same degree as 10 μM ABA in the wild type” value in test [1] (abo1-1 plants, preopened stomata, FIG. 2B) is 0.5 µM. Also, the “root and shoot growth” value in test [2] was “more inhibited than that of the wild type”.
For `C[n+]1ccc(-c2cc[n+](C)cc2)cc1` [MV, Methyl viologen], the “cotyledons affected (greening prevented)” value in test [3] (abo1-1, 1.2 μM MV for 10 days) is 40%. Besides, the seedling growth entry in test [3] (abo1-1 seedlings, 3 μM MV, 5-day treatment) is listed as “grew well”. For the same molecule, the seedling survival entry is “still survived” in test [3] (abo1 mutant seedlings, 6 μM MV) and “completely killed all” in test [3] (wild-type seedlings, 4 μM MV). The “seedlings with cotyledon greening prevented” value in test [3] (wild-type seedlings, 1.2 μM MV for 10 days) is “more than 90%”. Moreover, in test [3] (wild-type seedlings, 3 μM MV, 5-day treatment), the seedlings killed entry was “more than 50%”. In addition, in test [4] (abo1-1 leaves versus wild type, 1 μM MV), the “ion leakage (electrolyte leakage, conductivity)” value is given as “substantially less ion leakage than the wild-type leaves”. Besides, the leaf damage result in test [4] (abo1-1 leaves, 1 μM MV, after 5 days) is “enhanced anthocyanin pigmentation but without any apparent chlorotic symptom”; in test [4] (wild-type leaves, 1 μM MV, after 5 days), “severely damaged and displayed chlorotic spots or bleaching”.
`OO` [H2O2]: in test [4] (wild-type leaves versus abo1-1 leaves, 10 mM H2O2 for 5 days), the leaf damage result was “more damaged than abo1-1 leaves”.
As for `O=C([O-])c1c(Cl)c(Cl)c(Cl)c(Cl)c1-c1c2cc(I)c(=O)c(I)c-2oc2c(I)c([O-])c(I)cc12.[Na+].[Na+]` [Rose Bengal], the cotyledon damage entry in test [5] (abo1 mutant) is on record as “no chlorotic symptom observed”; in test [5] (wild-type seedlings), “severely damaged the cotyledons”.
